Assay results: patent US12728121B2, “Compositions and methods for treating idiopathic pulmonary fibrosis” (Seyltx, Inc., priority 2019, dated 2026)

Tests used:
Format in all cases: in vivo, Mouse/C57BL/6
[1] = Bleomycin (BLM)-induced lung fibrosis in mice: body weight over 21 days; conditions: for Percent Change in Body Weight / Body Weight: doses as Table 1; for Body Weight: group mean
Method: (§1) The mouse species or strain was Mouse/C57BL/6, the mice being 8-10 week old males. Nine groups of 10 mice each were obtained from Charles River Laboratories. Each group was randomized based on body weight. Bleomycin (BLM) was obtained from Euroasias.
(§2) The mice were anesthetized with isoflurane/O2 mixture. Bleomycin (BLM) was then administered to the mice intratracheally (PennCentury)—single bolus, at 2.5 U/kg body weight in 50 μl sterile saline.
(§3) Seven days after the bleomycin is administered, and fibroblasts have generally proliferated, six of the nine groups of IT bleomycin challenged mice were be dosed orally (p.o.) once a day with Bromantane, Ifenoprodil, Radiprodil, Bemithyl, Dexamethasone, or Repirinast at specified amounts per kg of body weight (mg/kg) daily for 14 consecutive days. The amounts are set out in Table 1 below. The vehicle used was 0.5% carboxymethyl cellulose (CMC). Prifenidone was also prepared in 0.5% CMC and administrated orally once a day to one of the nine IT bleomycin challenged mice groups beginning for 14 consecutive days. Vehicle and no-BLM control groups received 0.5% CMC orally for 14 consecutive days.
Body Weight: The body weights were measured over 21 days using a laboratory balance.

[2] = tested on: BLM-induced fibrosis; experiment: Bleomycin (BLM)-induced lung fibrosis in mice: Gomori's Trichrome score of lung sections; conditions: day 21
Method: as §1, §2, §3
On day 21 of the study, 4 hours after the last dose, the mice were sacrificed and plasma was collected and frozen for cytokine analysis (testing for IL-6, IL-12, TGFβ, IL-13 proteins, or fibrosis markers). Bronchoalveolar lavage fluid (BALF) was collected and frozen for optional cytokine analyses and cell counts pending the initial data. The lungs were then excised, weighed and fixed in formalin. Gomori's Trichrome stain, a histological stain, was used to determine collagen content.
Trichrome Score: A trichrome score measures the level of scarring to the lungs caused by the disease. The greater the trichrome score, the greater the scarring.
Formalin fixed lung samples were submitted to affiliated histopathology laboratory for histopathological analysis subjected Gomori's Trichrome stain, a histological stain, which was used to determine collagen content.
Each lung was divided into ten sections. All ten sections were stained and evaluated. A board certified veterinarian pathologist assessed the presence of lung fibrosis and severity score—The expression of collagen (associated with fibrosis) is determined from the ratio of the stained area versus the total area of the lung section.

[3] = tested on: BLM-induced fibrosis; experiment: Bleomycin (BLM)-induced lung fibrosis in mice: mortality rate over 21 days; conditions: doses as Table 1
Method: as §1, §2, §3
Mortality Rate: the mortality rate in each group was also observed over 21 days.

In the case of `Brc1ccc(NC2C3CC4CC(C3)CC2C4)cc1` (stereo not shown) [Bromantane, N-(4-bromophenyl)adamantan-2-amine], the “Percent Change in Body Weight” value ([1]; 7-Nov) is reported as 0.0%, the “Body Weight” value ([1]; 7-Nov) is reported as 24.8 g and the “Percent Change in Body Weight” value ([1]; 8-Nov) is reported as −0.1%. For the same compound, the “Body Weight” value ([1]; 8-Nov) was 24.7 g, the “Percent Change in Body Weight” value ([1]; 9-Nov) was −0.8% and the “Body Weight” value ([1]; 9-Nov) was 24.0 g. The “Percent Change in Body Weight” value ([1]; 12-Nov) was −1.8%, the “Body Weight” value ([1]; 12-Nov) was 23.1 g and the “Percent Change in Body Weight” value ([1]; 14-Nov) was −1.1%. For the same compound, the “Body Weight” value ([1]; 14-Nov) was 23.7 g, the “Percent Change in Body Weight” value ([1]; 16-Nov) was −1.5% and the “Body Weight” value ([1]; 16-Nov) was 23.3 g. The “Percent Change in Body Weight” value ([1]; 20-Nov) was −1.9%, the “Body Weight” value ([1]; 20-Nov) was 22.9 g and the “Percent Change in Body Weight” value ([1]; 22-Nov) was −1.6%. For the same compound, the “Body Weight” value ([1]; 22-Nov) was 23.2 g, the “Percent Change in Body Weight” value ([1]; 26-Nov) was −1.0% and the “Body Weight” value ([1]; 26-Nov) was 23.8 g. The “Percent Change in Body Weight” value ([1]; 28-Nov) was 0.4%, the “Body Weight” value ([1]; 28-Nov) was 25.2 g and the “changes in body weight as compared to the BLM-vehicle group (in words)” value ([1]; doses as Table 1, p.o. once daily) was “showed improvement beginning Day 5, with the exception of Day 15”. For the same compound, the “Trichrome score (average)” value ([2]; BLM 2.5 U/kg intratracheal, p.o. once daily 14 days from day 7, mg/kg: Pirfenidone 300, Bromantane 20, Ifenoprodil 30, Radiprodil 30, Bemithyl 200, Dexamethasone 0.25, Repirinast 90, Normal 1.00, Vehicle 4.59) was 4.00, the “% reduction in fibrosis” value ([2]; from Trichrome scores relative to vehicle and normal groups, doses as Table 1, p.o. once daily 14 days) was 16.4% and the “Fatality Number” value ([3]; deaths/mice per group over 21 days, Vehicle 2/10) was 3/10. For the same compound, the “Percent Fatality” value ([3]; over 21 days, Vehicle 20%) was 30%.
